In patent US6297247A, “Sulfonamide inhibitors of matrix metalloproteinases” (priority 2000, dated 2001):
Counter-ions that a name gives are not always drawn.

Legend:
[1] = molecular target: GCD (recombinant gelatinase A catalytic domain); assay: Inhibition of recombinant gelatinase A catalytic domain (GCD), thiopeptolide substrate; type: biochemical; details: thiopeptolide substrate Ac-Pro-Leu-Gly-thioester-Leu-Leu-Gly-OEt
[2] = molecular target: T1, SCD (stromelysin-1 catalytic domain) (Homo sapiens, UniProt P08254); assay: Inhibition of stromelysin-1 catalytic domain (SCD), thiopeptolide substrate; type: biochemical; details: thiopeptolide substrate Ac-Pro-Leu-Gly-thioester-Leu-Leu-Gly-OEt
T1 construct: SCD (stromelysin-1 catalytic domain)
T1 sequence (P08254 100-272 limits assumed): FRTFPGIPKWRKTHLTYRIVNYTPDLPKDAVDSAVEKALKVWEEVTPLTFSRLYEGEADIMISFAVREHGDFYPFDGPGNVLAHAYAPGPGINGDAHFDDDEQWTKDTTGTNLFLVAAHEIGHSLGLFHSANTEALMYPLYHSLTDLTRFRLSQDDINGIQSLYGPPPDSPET
Experimental: IC50 values were determined using a thiopeptolide substrate, Ac-Pro-Leu-Gly-thioester-Leu-Leu-Gly-OEt (Ye Q.-Z., Johnson L. L., Hupe D. J. and Baragi V., "Purification and Characterization of the Human Stromelysin Catalytic Domain Expressed in Escherichia coli", Biochemistry,1992;31:11231-11235).

[3] = system: experimental allergic encephalomyelitis (EAE); details: in vivo; cited from earlier work
bovine nasal cartilage = details: cited from earlier work
pig articular cartilage = details: cited from earlier work

IC50 [1] [µM] | IC50 [2] [µM] | Molecule | development or clinical expression of EAE [3] | formation of collagen fragments and proteoglycan fragments (bovine nasal cartilage) | formation of collagen fragments and proteoglycan fragments (pig articular cartilage)
0.4 | 0.3 | O=C(O)C(CCCc1ccccc1)NS(=O)(=O)c1ccc(N2CCC(c3ccccc3)CC2)cc1 (racemic) [Example 9, (±)-5-Phenyl-2-[4-(4-phenyl-piperidin-1-yl)-benzenesulfonylamino]-pentanoic acid] |  |  | 
4.8 | 1.24 | O=C(O)CCNS(=O)(=O)c1ccc(N2CCC(c3ccccc3)CC2)cc1 [Example 3, 3-[4-(4-Phenyl-piperidin-1-yl)-benzenesulfonylamino]-propionic acid] |  |  | 
0.22 |  | O=C(O)[C@H](Cc1ccccc1)NS(=O)(=O)c1ccc(N2CCC(c3ccccc3)CC2)cc1 [Example 6, (S)-3-Phenyl-2-[4-(4-phenyl-piperidin-1-yl)-benzenesulfonylamino]-propionic acid] |  |  | 
0.12 | 0.012 | O=C(O)[C@@H](Cc1ccccc1)NS(=O)(=O)c1ccc(N2CCC(c3ccccc3)CC2)cc1 [Example 7, (R)-3-Phenyl-2-[4-(4-phenyl-piperidin-1-yl)-benzenesulfonylamino]-propionic acid] |  |  | 
5.3 | 0.19 | O=C(O)[C@H](Cc1ccc(OCc2ccccc2)cc1)NS(=O)(=O)c1ccc(N2CCC(c3ccccc3)CC2)cc1 [Example 13, (S)-3-(4-Benzyloxy-phenyl)-2-[4-(4-phenyl-piperidin-1-yl)-benzenesulfonylamino]-propionic acid] |  |  | 
0.33 | 0.062 | COc1cccc(N2CCN(c3ccc(S(=O)(=O)N[C@@H](Cc4ccccc4)C(=O)O)cc3)CC2)c1 [Example 16, (S)-2-{4-[-4-(3-Methoxy-phenyl)-piperazin-1-yl]-benzenesulfonylamino}-3-phenyl-propionic acid] |  |  | 
0.033 |  | COc1ccc(N2CCN(c3ccc(S(=O)(=O)N[C@@H](Cc4ccccc4)C(=O)O)cc3)CC2)cc1 [Example 18, (S)-2-{4-[-4-(4-Methoxy-phenyl)-piperazin-1-yl]-benzenesulfonylamino}-3-phenyl-propionic acid] |  |  | 

The next lines start with the molecule.

Molecule | IC50 [1] [µM] | IC50 [2] [µM] | development or clinical expression of EAE [3] | formation of collagen fragments and proteoglycan fragments (bovine nasal cartilage) | formation of collagen fragments and proteoglycan fragments (pig articular cartilage)
O=C(O)CNS(=O)(=O)c1ccc(N2CCC(c3ccccc3)CC2)cc1 [Example 1, [4-(4-Phenyl-piperidin-1-yl)-benzenesulfonylamino]-acetic acid] | 0.21 |  |  |  | 
O=C(CNS(=O)(=O)c1ccc(N2CCC(c3ccccc3)CC2)cc1)NO [Example 2, N-Hydroxy-2-[4-(4-phenyl-piperidin-1-yl)-benzenesulfonylamino]-acetamide] | 0.81 |  |  |  | 
CC(C)C[C@@H](NS(=O)(=O)c1ccc(N2CCC(c3ccccc3)CC2)cc1)C(=O)O [Example 4, (R)-4-Methyl-2-[4-(4-phenyl-piperidin-1-yl)-benzenesulfonylamino]-pentanoic acid] | 0.93 | 0.036 |  |  | 
CC(C)C[C@H](NS(=O)(=O)c1ccc(N2CCC(c3ccccc3)CC2)cc1)C(=O)O [Example 5, (S)-4-Methyl-2-[4-(4-phenyl-piperidin-1-yl)-benzenesulfonylamino]-pentanoic acid] | 0.084 | 0.011 |  |  | 
O=C(O)[C@H](Cc1c[nH]c2ccccc12)NS(=O)(=O)c1ccc(N2CCC(c3ccccc3)CC2)cc1 [Example 8, (S)-3-(1H-Indol-3-yl)-2-[4-(4-phenyl-piperidin-1-yl)-benzenesulfonylamino]-propionic acid] | 0.32 | 0.01 |  |  | 
O=C(O)CNS(=O)(=O)c1ccc(N2CCN(c3ccccc3)CC2)cc1 [Example 10, [4-(4-Phenyl-piperazin-1-yl)-benzenesulfonylamino]-acetic acid] | 0.5 | 0.05 |  |  | 
CC(C)CN(CC(=O)O)S(=O)(=O)c1ccc(N2CCC(c3ccccc3)CC2)cc1 [Example 11, {Isobutyl-[4-(4-phenyl-piperidin-1-yl)-benzenesulfonyl]amino}-acetic acid] | 3.3 | 0.17 |  |  | 
O=C(O)[C@H](Cc1ccccc1)NS(=O)(=O)c1ccc(N2CCC(Cc3ccccc3)CC2)cc1 [Example 12, (S)-2-[4-(4-Benzyl-piperidin-1-yl)-benzenesulfonylamino]-3-phenyl-propionicacid] | 3.2 | 0.6 |  |  | 
O=C(O)[C@H](Cc1ccc(O)cc1)NS(=O)(=O)c1ccc(N2CCC(c3ccccc3)CC2)cc1 [Example 14, (S)-3-(4-Hydroxy-phenyl)-2-[4-(4-phenyl-piperidin-1-yl)-benzenesulfonylamino]-propionic acid] | 0.13 | 0.015 |  |  | 
O=C(O)[C@H](Cc1ccccc1)NS(=O)(=O)c1ccc(N2CCN(c3ccccc3)CC2)cc1 [Example 15, (S)-3-Phenyl-2-[4-(4-phenyl-piperazin-1-yl)-benzenesulfonylamino]-propionicacid] | 0.088 | 0.021 |  |  | 
O=C(O)[C@H](Cc1ccccc1)NS(=O)(=O)c1ccc(N2CCN(c3cccc(O)c3)CC2)cc1 [Example 17, (S)-2-{4-[-4-(3-Hydroxy-phenyl)-piperazin-1-yl]-benzenesulfonylamino}-3-phenyl-propionic acid hydrobromide] | 0.18 | 0.077 |  |  | 
CNC(=O)[C@H](Cc1c[nH]c2ccccc12)NC(=O)[C@@H](CC(=O)NO)CC(C)C [GM6001] |  |  | suppressed the development or reversed the clinical expression of experimental allergic encephalomyelitis (EAE) in a dose dependent manner |  | 
TIMP-1: natural endogenous inhibitors of MMPs (TIMPS) |  |  |  | prevented the formation of collagen fragments, but not proteoglycan fragments | prevented the formation of collagen fragments, but not proteoglycan fragments
